Read-outs that look alike come from different tables or passages of the source.
Columns and labels:
CDK2/CycE = biological target: T1, CDK2/CycE (Homo sapiens, UniProt P24941); test: CDK2/CycE kinase assay (TR-FRET, 2 mM ATP); assay type: biochemical; details: 2 mM ATP (high ATP); median; read-out: CDK2/CyclinE, 2 mM ATP (high ATP), IC50 (median)
T1 construct: purchased ProQinase GmbH (Freiburg, Germany); host or cells: insect cells (Sf9)
Method in brief: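 GST-tagged human CDK2 and CycE from Sf9 cells, about 10 ng/ml, pre-incubated 15 min at 22 °C with compound in Tris/HCl pH 8.0 buffer. Reaction with 2 mM ATP and 0.75 µM biotinylated peptide for 25 min at 22 °C. Phospho-RB antibody TR-FRET (665/620 nm ratio) read after 1 h; data normalised to no-inhibitor and no-enzyme controls.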

[1] = system: MDA-MB-231, human breast cancer cells; test: Proliferation assay MDA-MB-231 (crystal violet, 4 days); assay type: cell-based; details: MDA-MB-231 cells, median, read-out: Prolif-MDA MB-231, IC50-[mol/l] (median)
Method in brief: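 CAL-120 or MDA-MB-231 cells grown 24 h, then exposed 4 days to compound (0.01–10 micromol/L, 0.1% DMSO). Crystal violet staining, absorbance at 595 nm, normalised to a zero-point plate (0%) and untreated cells (100%); IC50 by 4-parameter fit.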

| Compound | IC50 (CDK2/CycE) | IC50 ([1]; Homo sapiens, MDA-MB-231, 96 h) | IC50 [1] |
| --- | --- | --- | --- |
| Fc1ccc2[nH]c(CNc3nc(N4CCOCC4)nc4c(Cl)cnn34)nc2c1F [Example 357] | 11.9 µM | 0.0104 µM | – |
| FC(F)(F)c1ccc2[nH]c(CNc3nc(N4CCOCC4)nc4c(Br)cnn34)nc2c1 [Example 339, 8-bromo-2-(morpholin-4-yl)-N-{[5-(trifluoromethyl)-1H-benzimidazol-2-yl]methyl}pyrazolo[1,5-a][1,3,5]triazin-4-amine] | 6.74 µM | 0.00745 µM | – |
| Clc1cc2nc(CNc3nc(N4CC5CCC(C4)N5)nc4c(C5CC5)cnn34)[nH]c2cc1Cl [Example 324, 8-cyclopropyl-2-(3,8-diazabicyclo[3.2.1]octan-3-yl)-N-[(5,6-dichloro-1H-benzimidazol-2-yl)methyl]pyrazolo[1,5-a][1,3,5]triazin-4-amine] | 13.8 µM | 0.00156 µM | – |
| Fc1c(Cl)ccc2[nH]c(CNc3nc(N4CCOCC4)nc4c(Br)cnn34)nc12 [Example 372, 8-bromo-N-[(5-chloro-4-fluoro-1H-benzimidazol-2-yl)methyl]-2-(morpholin-4-yl)pyrazolo[1,5-a][1,3,5]triazin-4-amine] | 3.65 µM | 0.00428 µM | – |
| CN(CC(C)(C)O)c1nc(NCc2nc3cc(OC(F)(F)F)ccc3[nH]2)n2ncc(Br)c2n1 [Example 378, 1-{[8-bromo-4-({[5-(trifluoromethoxy)-1H-benzimidazol-2-yl]methyl}amino)pyrazolo[1,5-a][1,3,5]triazin-2-yl](methyl)amino}-2-methylpropan-2-ol] | 8.11 µM | 0.0964 µM | – |
| Fc1cc2nc(CNc3nc(N4CCOCC4)nc4c(C(F)(F)F)cnn34)[nH]c2cc1F [Example 333, N-[(5,6-difluoro-1H-benzimidazol-2-yl)methyl]-2-(morpholin-4-yl)-8-(trifluoromethyl)pyrazolo[1,5-a][1,3,5]triazin-4-amine] | > 20 µM | 0.00378 µM | – |
| Fc1ccc(-c2nnc(CNc3nc(N4CCOCC4)nc4c(Br)cnn34)[nH]2)cc1 [Example 29, 8-bromo-N-{[5-(4-fluorophenyl)-4H-1,2,4-triazol-3-yl]methyl}-2-(morpholin-4-yl)pyrazolo[1,5-a][1,3,5]triazin-4-amine] | 3.08 µM | 0.0899 µM | – |
| CN1C2CCC1CN(c1nc(NCc3nc4c(F)c(F)ccc4[nH]3)n3ncc(C(F)(F)F)c3n1)C2 [Example 356, N-[(4,5-difluoro-1H-benzimidazol-2-yl)methyl]-2-(8-methyl-3,8-diazabicyclo[3.2.1]octan-3-yl)-8-(trifluoromethyl)pyrazolo[1,5-a][1,3,5]triazin-4-amine] | > 20 µM | 0.00525 µM | – |
| Fc1ccc2[nH]c(CNc3nc(N4CC5CCC(C4)N5)nc4c(Cl)cnn34)nc2c1F.O=CO [Example 360, formic acid 8-chloro-2-(3,8-diazabicyclo[3.2.1]octan-3-yl)-N-[(4,5-difluoro-1H-benzimidazol-2-yl)methyl]pyrazolo[1,5-a][1,3,5]triazin-4-amine] | 12.1 µM | 0.00567 µM | – |
| Fc1cc2nc(CNc3nc(N4C[C@H]5CC[C@@H](C4)N5)nc4c(C5CC5)cnn34)[nH]c2cc1Cl [Example 328, N-[(6-chloro-5-fluoro-1H-benzimidazol-2-yl)methyl]-8-cyclopropyl-2-[(1R,5S)-3,8-diazabicyclo[3.2.1]octan-3-yl]pyrazolo[1,5-a][1,3,5]triazin-4-amine] | 14.5 µM | 0.00104 µM | – |
| Brc1cnn2c(NCc3nc4ccccc4[nH]3)nc(N3CCN4CCC3C4)nc12 (stereo not drawn) [Example 350, N-[(1H-benzimidazol-2-yl)methyl]-8-bromo-2-(1,4-diazabicyclo[3.2.1]octan-4-yl)pyrazolo[1,5-a][1,3,5]triazin-4-amine] | 3.39 µM | 0.0137 µM | – |
| Fc1cc2nc(CNc3nc(N4CCOCC4)nc4c(Br)cnn34)[nH]c2cc1F [Example 341, 8-bromo-N-[(5,6-difluoro-1H-benzimidazol-2-yl)methyl]-2-(morpholin-4-yl)pyrazolo[1,5-a][1,3,5]triazin-4-amine] | 9.36 µM | 0.00373 µM | – |
| CN1CCN(c2nc(NCc3nc4cc(F)c(F)cc4[nH]3)n3ncc(Br)c3n2)CC1 [Example 346, 8-bromo-N-[(5,6-difluoro-1H-benzimidazol-2-yl)methyl]-2-(4-methylpiperazin-1-yl)pyrazolo[1,5-a][1,3,5]triazin-4-amine] | > 20 µM | 0.00467 µM | – |
| Fc1cc2nc(CNc3nc(N4CCOCC4)nc4c(Br)cnn34)[nH]c2cc1Cl [Example 336, 8-bromo-N-[(6-chloro-5-fluoro-1H-benzimidazol-2-yl)methyl]-2-(morpholin-4-yl)pyrazolo[1,5-a][1,3,5]triazin-4-amine] | 8.95 µM | 0.00427 µM | – |
| FC(F)(F)c1cnn2c(NCc3nc4cc(Cl)c(Cl)cc4[nH]3)nc(N3CCOCC3)nc12 [Example 332, N-[(5,6-dichloro-1H-benzimidazol-2-yl)methyl]-2-(morpholin-4-yl)-8-(trifluoromethyl)pyrazolo[1,5-a][1,3,5]triazin-4-amine] | > 20 µM | 0.0118 µM | – |
| Cc1cc2nc(CNc3nc(N4CCOCC4)nc4c(Br)cnn34)[nH]c2cc1C [Example 340, 8-bromo-N-[(5,6-dimethyl-1H-benzimidazol-2-yl)methyl]-2-(morpholin-4-yl)pyrazolo[1,5-a][1,3,5]triazin-4-amine] | 1.16 µM | 0.00436 µM | – |
| CN(CC(C)(C)O)c1nc(NCc2nc3cc(Cl)c(Cl)cc3[nH]2)n2ncc(Br)c2n1 [Example 331, 1-[(8-bromo-4-{[(5,6-dichloro-1H-benzimidazol-2-yl)methyl]amino}pyrazolo[1,5-a][1,3,5]triazin-2-yl)(methyl)amino]-2-methylpropan-2-ol] | 7.31 µM | 0.00375 µM | – |
| CN1CCC(Oc2nc(NCc3nc4ccccc4[nH]3)n3ncc(Br)c3n2)CC1 [Example 389, N-[(1H-benzimidazol-2-yl)methyl]-8-bromo-2-[(1-methylpiperidin-4-yl)oxy]pyrazolo[1,5-a][1,3,5]triazin-4-amine] | > 20 µM | 0.332 µM | – |
| CN1CCN(c2nc(NCc3nc4c(F)c(Cl)ccc4[nH]3)n3ncc(C4CC4)c3n2)CC1 [Example 371, N-[(5-chloro-4-fluoro-1H-benzimidazol-2-yl)methyl]-8-cyclopropyl-2-(4-methylpiperazin-1-yl)pyrazolo[1,5-a][1,3,5]triazin-4-amine] | > 20 µM | 0.0078 µM | – |
| CN1CCN(c2nc(NCc3nc4c(F)cccc4[nH]3)n3ncc(Cl)c3n2)CC1.O=CO [Example 362, formic acid 8-chloro-N-[(4-fluoro-1H-benzimidazol-2-yl)methyl]-2-(4-methylpiperazin-1-yl)pyrazolo[1,5-a][1,3,5]triazin-4-amine] | 9.31 µM | 0.0335 µM | – |
| Brc1cnn2c(NCc3nc4ccccc4[nH]3)nc(N3C[C@H]4CC[C@@H]3CO4)nc12 (single isomer, unassigned; enantiomer 2) [Example 391, N-[(1H-benzimidazol-2-yl)methyl]-8-bromo-2-{[1R or S-(1R*,4R*)]-2-oxa-5-azabicyclo[2.2.2]octan-5-yl}pyrazolo[1,5-a][1,3,5]triazin-4-amine (Enantiomer 2)] | 4.91 µM | – | 0.0261 µM |
| Fc1cc2nc(CNc3nc(N4CC5CCC(C4)N5)nc4c(Br)cnn34)[nH]c2cc1F [Example 355, 8-bromo-2-(3,8-diazabicyclo[3.2.1]octan-3-yl)-N-[(5,6-difluoro-1H-benzimidazol-2-yl)methyl]pyrazolo[1,5-a][1,3,5]triazin-4-amine] | > 18.6 µM | 0.0032 µM | – |
| FC(F)(F)Oc1ccc2[nH]c(CNc3nc(N4C[C@H]5CC[C@@H](C4)N5)nc4c(Br)cnn34)nc2c1 [Example 382, 8-bromo-2-[(1R,5S)-3,8-diazabicyclo[3.2.1]octan-3-yl]-N-{[5-(trifluoromethoxy)-1H-benzimidazol-2-yl]methyl}pyrazolo[1,5-a][1,3,5]triazin-4-amine] | 14.2 µM | 0.0293 µM | – |
| Brc1cnn2c(NCc3nc4ccccc4[nH]3)nc(N3C[C@H]4CC[C@@H]3CN4)nc12 (single isomer, unassigned) [Example 335, N-[(1H-benzimidazol-2-yl)methyl]-8-bromo-2-{[1R or S-(1R*,4R*)]-2,5-diazabicyclo[2.2.2]octan-2-yl}pyrazolo[1,5-a][1,3,5]triazin-4-amine] | 2.8 µM | – | 0.0105 µM |
| CC[C@@H](CO)Nc1nc(NCc2nc3ccccc3[nH]2)n2ncc(Br)c2n1 [Example 367, (2S)-2-[(4-{[(1H-benzimidazol-2-yl)methyl]amino}-8-bromopyrazolo[1,5-a][1,3,5]triazin-2-yl)amino]butan-1-ol] | 0.573 µM | 0.0841 µM | – |
| CN(c1nc(NCc2nc3ccccc3[nH]2)n2ncc(Br)c2n1)[C@H]1C[C@H](O)C1 [Example 365, trans-3-[(4-{[(1H-benzimidazol-2-yl)methyl]amino}-8-bromopyrazolo[1,5-a][1,3,5]triazin-2-yl)(methyl)amino]cyclobutan-1-ol] | 1.74 µM | 0.118 µM | – |
| CC[C@H](COC)Nc1nc(NCc2nc3ccccc3[nH]2)n2ncc(Br)c2n1 [Example 369, N4-[(1H-benzimidazol-2-yl)methyl]-8-bromo-N2-[(2R)-1-methoxybutan-2-yl]pyrazolo[1,5-a][1,3,5]triazine-2,4-diamine] | 10.5 µM | 0.297 µM | – |

From patent US20230117034A1, “PYRAZOLOTRIAZINES” (Bayer Aktiengesellschaft, priority 2019, published 2023)
